Assay results taken from US20050042283A1, “Histamine and CCK2/gastrin receptor blockade in the treatment of acid-peptic disease and cancer” (UNIVERSITY OF MASSACHUSETTS, priority 2003, published 2005).
Where “and” joins values, the source holds several entries; their conditions need not be identical. Equal entries are not always repeated.

What was measured:
Format in all cases: in vivo
[1] = tested on: H. felis-infected INS-GAS mice; assay: Stomach wet-weight and gross stomach size
Excerpt: The control group (A) included INS-GAS mice that were infected with H. felis but untreated, resulting in a total of 4 groups of mice (A-D). The INS-GAS (male) mice entered the study at 6-8 weeks of age, and were housed in 4 cages. There were 21 mice in each group, seven of which were euthanized after 3 months and 14 of which were euthanized after 6-7 months. The doses of medication are shown. Loxtidine was given in the drinking water while YF476 was given by subcutaneous injection once a week.
FIG. 4: Closed stomachs from INS-GAS/H. felis mice. Gross photos of representative stomachs from each of the four groups of 6 month H. felis-infected INS-GAS mice are shown. Mice were euthanized by CO2 inhalation and the stomachs were removed by […] of the esophagus and duodenum.
Mice in group III were treated orally with the histamine H2 receptor antagonist loxtidine (in drinking water) at a dose of 0.5 g/L, while group IV mice received both drugs. For the 3 months drug study of inhibitory effects on maximal acid secretion, gastric atrophy, hyperplasia and dysplasia, 8 mice were prepared for each group. For the 6 months drug study of inhibitory effects on gastric carcinogenesis, 17 mice were prepared for each group.

IFN-gamma = assay: Real-time RT-PCR of cytokine expression: IFN-gamma; conditions: 6 months, versus untreated mice
Procedure: Real-time RT-PCR assay of growth factors and cytokine expression profiles Total RNAs were extracted from a sample of whole stomach from each animal with Trizol (Invitrogen, Calif.) and five micrograms of total RNA were used for first strand cDNA synthesis using Superscript II cDNA amplification System (Invitrogen, Calif.) following manufacturer's instructions. Real-time PCR was performed as above using RT-PCR primers for each gene as listed below. All primers were designed using Lasergene ver5.0 software (DNASTAR inc., Madison, Wis.). Results were calculated by minus delta delta threshold cycle (-ΔΔCt) method (Livak, K. J. et al., 2001). Briefly, the threshold cycle Ct1 of each sample reaction was deducted from the threshold cycle Ct2 of GAPDH reaction for normalization, and then deducted from the threshold cycle Ct3 of calibration control (45 cycles in this experiment), i.e., the final result was represented by the formula; Ct3-(Ct1-Ct2). […]

Helicobacter felis = assay: H. felis infection status (Warthin-Starry staining, IgG ELISA, real-time PCR); conditions: quantitative real-time PCR; n=6
Excerpt: The insulin-gastrin (INS-GAS) transgenic mice (FVB/N background) have been described previously (Wang, T. C. et al., 2000; Wang T. C. et al., 1993) and were free of specific pathogens. Animals were housed in microisolator, solid-bottomed polycarbonate cages, fed a commercially prepared pelleted diet, and given water ad libitum. One hundred twenty four (124) male INS-GAS mice at 2 or 3 months of age were inoculated with Helicobacter felis (ATCC 49179) as previously described (Wang, T. C. et al., 2000). Infection status was confirmed at 14 weeks and 26 weeks post inoculation by enzyme-linked immunosorbent assay (ELISA) to measure immunoglobulin IgG antibody to H. felis, and by quantitative real-time PCR assays of gastric corpus tissue at necropsy as described below. […]
At necropsy, linear strips extending from the squamocolumnar junction through the proximal duodenum were fixed in 10% neutral-buffered formalin, paraffin-embedded, cut at 5 microns, and stained with hematoxylin and eosin. Indices of injury in the gastric cardia/corpus and antrum were scored on an ordinal scale from 0 to 4 in increments of 0.5 by a single veterinary pathologist (A.B.R.) blinded to treatment groups. […]
Plasma gastrin levels (COOH-terminally amidated gastrin) were determined by radioimmunoassay using rabbit antiserum L2 that reacts similarly with G17 and […]. […]

For “1-methyl-5-((3-(3-(1-piperidinylmethyl)phenoxy)propyl)amino)-1H-1,2,4-triazole-3-ethanol [Loxtidine]”, the Gross stomach size ([1]; 6 month H. felis-infected mice) was “significant reduction in apparent size”, the “Stomach weight after treatment” value ([1]; untreated 1831 / ~1830 mg) was ~400 mg and ~800 mg and the IFN-gamma expression level (IFN-gamma; listed as Loxtidine alone) was “significantly lower level”. The IFN-gamma expression level (IFN-gamma; listed as loxtidine alone) was “significantly down-regulated” and the “H. felis DNA copy numbers per gastric corpus DNA (copy/μg) compared with non drug treated mice” value (Helicobacter felis) was “no significant difference”.
